Reference: patent publication US10766869B2, “Triazoles for the treatment of demyelinating dieases” (Vertex Pharmaceuticals Incorporated, priority 2015, dated 2020)

Tested on: primary rat mixed cortical cells
Assay: In vitro myelination assay (MBP positive myelin strands, fold myelin pixels above background)
Assay type: cell-based
Conditions: Rattus norvegicus, read-out: Fold myelin pixels above background relative to baseline of no added compound; for fold induction at 1 µM: 1.0 μM compound; for fold induction at 10 µM: 10.0 μM compound
In short: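 Compounds at 1.0 and 10.0 μM were incubated 14 days with dissociated P1 rat cortical cells, which were then fixed and immunostained for MBP. Myelination was scored as fold MBP myelin pixels per well over the no-compound baseline.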

## [2H]C1([2H])N(c2cc(C)cc(Nc3ncn(-c4cc(F)cc(F)c4)n3)c2)C([2H])([2H])C([2H])([2H])N(C2CCC2)C1([2H])[2H] [Compound 994, N-[3-(4-cyclobutyl-2,2,3,3,5,5,6,6-octadeuterio-piperazin-1-yl)-5-methyl-phenyl]-1-(3,5-difluorophenyl)-1,2,4-triazol-3-amine]
  fold induction at 1 µM: 1 to 10
  fold induction at 10 µM: 1 to 10

## Cc1cc(Nc2ncn(-c3cc(F)cc(F)c3)n2)cc(N2CCN(CC(C)O)CC2)c1 (stereo not drawn) [Compound 995, 1-[4-[3-[[1-(3,5-difluorophenyl)-1,2,4-triazol-3-yl]amino]-5-methyl-phenyl]piperazin-1-yl]propan-2-ol]
  fold induction at 1 µM: 10 to 100
  fold induction at 10 µM: ≤ 1

## CCN1CC2CC1CN2c1cc(C)cc(Nc2ncn(-c3cc(F)cc(F)c3)n2)c1 (stereo not drawn) [Compound 996, 1-(3,5-difluorophenyl)-N-[3-(5-ethyl-2,5-diazabicyclo[2.2.1]heptan-2-yl)-5-methyl-phenyl]-1,2,4-triazol-3-amine]
  fold induction at 1 µM: 1 to 10
  fold induction at 10 µM: ≤ 1

## [2H]C1(N2C([2H])([2H])C([2H])([2H])N(c3cc(C)cc(Nc4ncn(-c5cc(F)cc(F)c5)n4)c3)C([2H])([2H])C2([2H])[2H])COC1 [Compound 997, 1-(3,5-difluorophenyl)-N-[3-methyl-5-[2,2,3,3,5,5,6,6-octadeuterio-4-(3-deuteriooxetan-3-yl)piperazin-1-yl]phenyl]-1,2,4-triazol-3-amine]
  fold induction at 1 µM: 100 to 1000
  fold induction at 10 µM: ≤ 1

## Cc1cc(Nc2ncn(-c3ccc(F)c(F)c3)n2)c(F)c(N2CCN(C3COC3)CC2)c1 [Compound 998, 1-(3,4-difluorophenyl)-N-[2-fluoro-5-methyl-3-[4-(oxetan-3-yl)piperazin-1-yl]phenyl]-1,2,4-triazol-3-amine]
  fold induction at 1 µM: 10 to 100
  fold induction at 10 µM: 1 to 10

## Cc1cc(Nc2ncn(-c3cc(F)cc(F)c3)n2)nc(OC2CCCOC2)c1 (stereo not drawn) [Compound 999, N-[1-(3,5-difluorophenyl)-1,2,4-triazol-3-yl]-4-methyl-6-tetrahydropyran-3-yloxy-pyridin-2-amine]
  fold induction at 1 µM: 1 to 10
  fold induction at 10 µM: ≤ 1

## COCCCCN1CCN(c2cc(C)cc(Nc3ncn(-c4cc(F)cc(F)c4)n3)c2)CC1 [Compound 1001, 1-(3,5-difluorophenyl)-N-[3-[4-(4-methoxybutyl)piperazin-1-yl]-5-methyl-phenyl]-1,2,4-triazol-3-amine]
  fold induction at 1 µM: 10 to 100
  fold induction at 10 µM: 1 to 10

## Cc1cc(NCCN2CC(C)OCC2C)cc(Nc2ncn(-c3cc(F)cc(F)c3)n2)c1 (stereo not drawn) [Compound 1003, N1-[1-(3,5-difluorophenyl)-1,2,4-triazol-3-yl]-N3-[2-(2,5-dimethylmorpholin-4-yl)ethyl]-5-methyl-benzene-1,3-diamine]
  fold induction at 1 µM: 10 to 100
  fold induction at 10 µM: ≤ 1

## CC1=NOC(CNc2cc(C)cc(Nc3ncn(-c4cc(F)cc(F)c4)n3)c2)C1 (stereo not drawn) [Compound 1004, N1-[1-(3,5-difluorophenyl)-1,2,4-triazol-3-yl]-5-methyl-N3-[(3-methyl-4,5-dihydroisoxazol-5-yl)methyl]benzene-1,3-diamine]
  fold induction at 1 µM: 1 to 10
  fold induction at 10 µM: 1 to 10

## Cc1cc(Nc2ncn(-c3cc(F)cc(F)c3)n2)cc(N2CCN(CCOC(C)C)CC2)c1 [Compound 1005, 1-(3,5-difluorophenyl)-N-[3-[4-(2-isopropoxyethyl)piperazin-1-yl]-5-methyl-phenyl]-1,2,4-triazol-3-amine]
  fold induction at 1 µM: 1 to 10
  fold induction at 10 µM: ≤ 1

## COC1CCN(c2cc(C)cc(Nc3ncn(-c4cc(F)cc(F)c4)n3)c2)CC1 [Compound 1006, 1-(3,5-difluorophenyl)-N-[3-(4-methoxy-1-piperidyl)-5-methyl-phenyl]-1,2,4-triazol-3-amine]
  fold induction at 1 µM: 10 to 100
  fold induction at 10 µM: 1 to 10

## Cc1cc(Nc2ncn(-c3cc(F)cc(F)c3)n2)c(F)c(NC2CCCC2N2CCOCC2)c1 (stereo not drawn) [Compound 1007, N3-[1-(3,5-difluorophenyl)-1,2,4-triazol-3-yl]-2-fluoro-5-methyl-N1-(2-morpholinocyclopentyl)benzene-1,3-diamine]
  fold induction at 1 µM: 1 to 10
  fold induction at 10 µM: 10 to 100

## Cc1cc(NCCOC2CCC2)cc(Nc2ncn(-c3cc(F)cc(F)c3)n2)c1 [Compound 1008, N3-[2-(cyclobutoxy)ethyl]-N1-[1-(3,5-difluorophenyl)-1,2,4-triazol-3-yl]-5-methyl-benzene-1,3-diamine]
  fold induction at 1 µM: 10 to 100
  fold induction at 10 µM: 1 to 10

## Cc1cc(Nc2ncn(-c3cc(F)cc(F)c3)n2)cc(N2CC(O)C(N3CCCC3)C2)c1 (stereo not drawn) [Compound 1010, 1-[3-[[1-(3,5-difluorophenyl)-1,2,4-triazol-3-yl]amino]-5-methyl-phenyl]-4-pyrrolidin-1-yl-pyrrolidin-3-ol]
  fold induction at 1 µM: 1 to 10
  fold induction at 10 µM: ≤ 1

## COCCN1CCN(c2cc(C)cc(Nc3ncn(-c4cc(F)cc(F)c4)n3)c2)CC1C (stereo not drawn) [Compound 1011, 1-(3,5-difluorophenyl)-N-[3-[4-(2-methoxyethyl)-3-methyl-piperazin-1-yl]-5-methyl-phenyl]-1,2,4-triazol-3-amine]
  fold induction at 1 µM: 10 to 100
  fold induction at 10 µM: ≤ 1

## Cc1cc(Nc2ncn(-c3cc(F)cc(F)c3)n2)cc(N2CCCC2CN2CCOCC2)c1 (stereo not drawn) [Compound 1012, 1-(3,5-difluorophenyl)-N-[3-methyl-5-[2-(morpholinomethyl)pyrrolidin-1-yl]phenyl]-1,2,4-triazol-3-amine]
  fold induction at 1 µM: 1 to 10
  fold induction at 10 µM: ≤ 1

## Cc1cc(Nc2ncn(-c3cc(F)cc(F)c3)n2)cc(NC2CCN(C3CCOCC3)CC2)c1 [Compound 1013, N3-[1-(3,5-difluorophenyl)-1,2,4-triazol-3-yl]-5-methyl-N1-(1-tetrahydropyran-4-yl-4-piperidyl)benzene-1,3-diamine]
  fold induction at 1 µM: 10 to 100
  fold induction at 10 µM: ≤ 1

## Cc1cc(Nc2ncn(-c3cc(F)cc(F)c3)n2)cc(N2CCC(OC3CCOC3)CC2)c1 (stereo not drawn) [Compound 1014, 1-(3,5-difluorophenyl)-N-[3-methyl-5-(4-tetrahydrofuran-3-yloxy-1-piperidyl)phenyl]-1,2,4-triazol-3-amine]
  fold induction at 1 µM: 1 to 10
  fold induction at 10 µM: 1 to 10

## Cc1cc(Nc2ncn(-c3cc(F)cc(F)c3)n2)cc(N2CCC(N(C)CCO)CC2)c1 [Compound 1015, 2-[[1-[3-[[1-(3,5-difluorophenyl)-1,2,4-triazol-3-yl]amino]-5-methyl-phenyl]-4-piperidyl]-methyl-amino]ethanol]
  fold induction at 1 µM: ≤ 1
  fold induction at 10 µM: ≤ 1

## Cc1cc(NC2(C)COC2)cc(Nc2ncn(-c3cc(F)cc(F)c3)n2)c1F [Compound 1016, N3-[1-(3,5-difluorophenyl)-1,2,4-triazol-3-yl]-4-fluoro-5-methyl-N1-(3-methyloxetan-3-yl)benzene-1,3-diamine]
  fold induction at 1 µM: 10 to 100
  fold induction at 10 µM: 1 to 10

## CCN(CC)CC1CN(c2cc(C)cc(Nc3ncn(-c4cc(F)cc(F)c4)n3)c2)CCO1 (stereo not drawn) [Compound 1017, N-[3-[2-(diethylaminomethyl)morpholin-4-yl]-5-methyl-phenyl]-1-(3,5-difluorophenyl)-1,2,4-triazol-3-amine]
  fold induction at 1 µM: 10 to 100
  fold induction at 10 µM: ≤ 1
